Data as given in PubChem BioAssay AID608 (Sanford-Burnham Center for Chemical Genomics, 2007).
Values joined by “and” are separate entries in the source; they are usually repeats but may differ in a detail not shown here. Identical values can stand only once. Active and inactive are the calls of the source. No rule for the calls is given here.

molecular target: Peptidyl-prolyl cis-trans isomerase FKBP1A (Homo sapiens) (UniProt P62942); assay: small-molecule binding to FKBP12 – biophysical, NMR detection (AID 608); details: purified FKBP12
Sequence (P62942 whole entry, looked up): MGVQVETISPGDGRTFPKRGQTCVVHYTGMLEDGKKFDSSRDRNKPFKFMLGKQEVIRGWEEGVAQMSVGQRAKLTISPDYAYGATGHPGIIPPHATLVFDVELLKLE

SMILES	Kd
Cc1c(C)[n+]([O-])c(-c2ccc([N+](=O)[O-])cc2)n1O	> 4 mM (inactive)
CC(=O)Nc1cccc(-c2n[nH]c(=S)n2C)c1	> 4 mM (inactive)
O=C(O)c1cncc(-c2ccccc2)c1	> 4 mM (inactive)
OC1(c2ccc(Cl)cc2)CCNCC1	> 4 mM (inactive)
Cc1nn2c3ccccc3nc2n(Cc2ccccc2)c1=O	> 4 mM (inactive)
O=C(/C=C/c1ccc(O)cc1)c1ccc(O)cc1O	> 4 mM (inactive)
Nc1cccc(S(=O)(=O)N2CCCCC2)c1	> 4 mM (inactive)
CN1CCCCC1c1ccc(-c2cccnc2)nc1 (stereo not given)	> 4 mM (inactive)
Cc1ccccc1NC(=S)NCCO	> 4 mM (inactive)
OCc1sccc1-n1cccc1	> 4 mM (inactive)
O=C(CC1NCCNC1=O)Nc1ccccc1 (stereo not given)	> 4 mM (inactive)
C[C@H]1O[C@@H](O[C@H]2[C@@H](O)C[C@H](O[C@H]3[C@@H](O)C[C@H](O[C@H]4CC[C@]5(C)C6CC[C@]7(C)[C@@H](C8=CC(=O)OC8)CC[C@]7(O)C6CC[C@@H]5C4)O[C@@H]3C)O[C@@H]2C)C[C@H](O)[C@@H]1O (stereo not given in full)	> 4 mM (inactive)
CC(=O)Nc1cc(O)cc(O)c1	> 4 mM (inactive)
COc1ccc2c(c1)OC/C(=C\c1ccc(OC)c(O)c1)C2=O	> 4 mM (inactive)
OC1CC(c2ccccc2)NC2(CCCC2)C1 (stereo not given)	> 4 mM (inactive)
Cn1c(=O)n(-c2cccc(Cl)c2)c(=O)n1C	> 4 mM (inactive)
O=C(O)c1cccc(-n2cccc2)c1	> 4 mM (inactive)
NC(=S)CN1CCCC1=O	> 4 mM (inactive)
CCC(C)C(=O)O[C@@H]1C[C@@]2(C)[C@H](c3ccoc3)OC(=O)CC23OC2(C)OC34[C@H](OC(=O)C(C)C)[C@@]3(O)[C@@H](OC(=O)C5(C)OC5C)[C@@]5(C)C[C@]3(O)[C@@](C)([C@H]5CC(=O)OC)C14O2 (stereo not given in full)	> 4 mM (inactive)
C[C@H]1C[C@@H](O)[C@]2(O)[C@@]13CC(=O)OC[C@@]2(C)[C@](C)(O)C(=O)C3	> 4 mM (inactive)
COc1ccc2[nH]c(O)c(NC(C)=O)c2c1	> 4 mM (inactive)
Cc1cc2nc(SCC(=O)O)nc(C)c2cc1C	> 4 mM (inactive)
CCOc1ccc(-c2c(=O)n(O)c3ccccc3[n+]2[O-])cc1	> 4 mM (inactive)

SMILES	Kd
O=S(=O)(Cc1ccccc1)N1CCCCCC1	> 4 mM (inactive)
O=C(c1ccco1)N1CCCN(C(=O)c2ccco2)CC1	0.072 mM and 0.277 mM
Cn1nnc2cc(CO)ccc21	> 4 mM (inactive)
Cc1ccc(/C=C2/C(=O)N=C(N)N2C)s1	> 4 mM (inactive)
C=CC(=O)N1CC2CC(C1)c1cccc(=O)n1C2 (stereo not given)	> 4 mM (inactive)
CN(C)C(=O)Nc1ccc(F)cc1F	> 4 mM (inactive)
Clc1cccc(Cl)c1Cn1c(-c2cscn2)nc2ccccc21	inactive
COc1cc(S(=O)(=O)N(C)C)ccc1F	> 4 mM (inactive)
O=C(CSc1ccc(C(F)(F)F)cc1[N+](=O)[O-])N1CCOCC1	0.448 mM
S=C(NCC1CCCO1)NC1CC1 (stereo not given)	> 4 mM (inactive)
COc1cc(-c2csc(C)n2)ccc1O	> 4 mM (inactive)
COC(=O)Nc1ccc2ncn(C)c(=O)c2c1	> 4 mM (inactive)
NC(N)=Nc1nc2ccccc2o1	> 4 mM (inactive)
CC(=O)Nc1ccc(N2CCOCC2)cc1	> 4 mM (inactive)
O=C(c1ccco1)N1CCn2c1nc1ccccc12	> 4 mM (inactive)
C=CC(C1=CC(=O)C(OC)=CC1=O)c1ccccc1 (stereo not given)	> 4 mM (inactive)
O=C(OCc1c(Cl)cccc1Cl)c1cnccn1	> 4 mM (inactive)
Cn1c(CO)nc2cc(N)ccc21	> 4 mM (inactive)
Cc1ccc(N2CCN(C(=O)c3ccccc3)CC2)c(C)c1	> 4 mM (inactive)
CC(C)(C)c1cc(NC(=O)c2cccnc2)no1	> 4 mM (inactive)
Cc1cc(=O)c2ccccc2n1CC(N)=O	> 4 mM (inactive)
NC(=O)c1ccc(N2C(=O)C=CC2=O)cc1Cl	> 4 mM (inactive)
